Data published in the NIST ThermoML archive (doi:10.1021/acs.jced.6b00577).

Conditions: Liquid, Frequency=8 MHz, Pulse-echo method

CCCC [butane]
Conditions	speed of sound [m/s]
320 K, 1101.2 kPa	790.66
320 K, 2101.9 kPa	805.08
320 K, 2104.1 kPa	805.16
320 K, 3102.5 kPa	818.93
320 K, 3104.8 kPa	819.01
320 K, 4103.2 kPa	832.27
320 K, 4105.5 kPa	832.35
320 K, 5103.8 kPa	845.16
320 K, 5106.1 kPa	845.24
320 K, 6106.8 kPa	857.71
320 K, 7107.5 kPa	869.8
320 K, 8108.2 kPa	881.54
320 K, 9108.9 kPa	892.95
320 K, 10109 kPa	904.04
320 K, 10110 kPa	904.07
320 K, 12611 kPa	930.65
320 K, 15113 kPa	955.74
320 K, 17615 kPa	979.54
320 K, 20116 kPa	1002.2
320 K, 25120 kPa	1044.7
320 K, 30123 kPa	1084
320 K, 35127 kPa	1120.6
320 K, 40130 kPa	1155
320 K, 45134 kPa	1187.5
320 K, 50137 kPa	1218.4
320 K, 50138 kPa	1218.4
320 K, 60144 kPa	1276.1
320 K, 70152 kPa	1329.2
320 K, 80158 kPa	1378.5
320 K, 90166 kPa	1424.7
320 K, 100173 kPa	1468.2
340 K, 1100.4 kPa	678.12
340 K, 2101.1 kPa	696.22
340 K, 2103.7 kPa	696.27
340 K, 3101.7 kPa	713.3
340 K, 3104.3 kPa	713.36
340 K, 4102.4 kPa	729.53
340 K, 4105 kPa	729.59
340 K, 5102.9 kPa	745.01
340 K, 5105.6 kPa	745.07
340 K, 6106.2 kPa	759.88
340 K, 7106.8 kPa	774.1
340 K, 8107.5 kPa	787.79
340 K, 9108.1 kPa	801.01
340 K, 10106 kPa	813.73
340 K, 10108 kPa	813.77
340 K, 12610 kPa	844.03
340 K, 15112 kPa	872.22
340 K, 17614 kPa	898.7
340 K, 20116 kPa	923.7
340 K, 25119 kPa	970.09
340 K, 30123 kPa	1012.5
340 K, 35126 kPa	1051.8
340 K, 40130 kPa	1088.5
340 K, 45133 kPa	1122.9
340 K, 50136 kPa	1155.5
340 K, 60145 kPa	1216
340 K, 70152 kPa	1271.4
340 K, 80159 kPa	1322.7
340 K, 90166 kPa	1370.5
340 K, 100173 kPa	1415.5
360 K, 2100.8 kPa	582.29
360 K, 2103.9 kPa	582.37
360 K, 3101.4 kPa	604.48
360 K, 3104.6 kPa	604.56
360 K, 4102 kPa	625
360 K, 4102.1 kPa	625
360 K, 4105.4 kPa	625.09
360 K, 5102.6 kPa	644.17
360 K, 5103 kPa	644.18
360 K, 5106.1 kPa	644.25
360 K, 6106.9 kPa	662.28
360 K, 7107.6 kPa	679.33
360 K, 8108.4 kPa	695.54
360 K, 9109.1 kPa	711.01
360 K, 10110 kPa	725.83
360 K, 12612 kPa	760.45
360 K, 15113 kPa	792.21
360 K, 17615 kPa	821.66
360 K, 20117 kPa	849.23
360 K, 25120 kPa	899.75
360 K, 30124 kPa	945.47
360 K, 35128 kPa	987.41
360 K, 40131 kPa	1026.3
360 K, 45135 kPa	1062.7
360 K, 50138 kPa	1096.9
360 K, 60145 kPa	1160.2
360 K, 70152 kPa	1217.7
360 K, 80159 kPa	1270.8
360 K, 90166 kPa	1320.2
360 K, 100173 kPa	1366.5
380 K, 2103.2 kPa	456.13
380 K, 3104.2 kPa	488.08
380 K, 4105 kPa	515.93
380 K, 5105.8 kPa	540.88
